Measured values: US20240376076A1, “INHIBITORS TARGETING UBIQUITIN SPECIFIC PROTEASE 7 (USP7)” (Dana-Farber Cancer Institute, Inc., priority 2021, published 2024)
Where two headings read alike, the source gives them in different places.

Experiments:
[1] = mouse liver microsomal stability (Microsome Assay Protocol); assay type: in vitro ADME; details: pH 7.4; mouse liver microsomes, NADPH, 37° C.; read-out: MLM t1/2, min
Method in brief: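 Compound at 1.5 μM was mixed with 0.75 mg/mL mouse liver microsomes in 0.1 M potassium phosphate, 1.0 mM EDTA, pH 7.4, then started with NADPH from a 6 mM stock after 5 min preincubation at 37 °C. Samples taken at 0, 5, 15, 30 and 45 min were quenched with acetonitrile containing internal standard and analysed by LC/MS.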

[2] = molecular target: T1, USP7, Active human recombinant protein (Homo sapiens, UniProt Q93009); test: USP7 assay (Ubiquitin-Rhodamine 110 enzymatic assay); assay type: biochemical
T1 construct: purchased CP Lot; 20200225001
T1 sequence (Q93009 whole entry): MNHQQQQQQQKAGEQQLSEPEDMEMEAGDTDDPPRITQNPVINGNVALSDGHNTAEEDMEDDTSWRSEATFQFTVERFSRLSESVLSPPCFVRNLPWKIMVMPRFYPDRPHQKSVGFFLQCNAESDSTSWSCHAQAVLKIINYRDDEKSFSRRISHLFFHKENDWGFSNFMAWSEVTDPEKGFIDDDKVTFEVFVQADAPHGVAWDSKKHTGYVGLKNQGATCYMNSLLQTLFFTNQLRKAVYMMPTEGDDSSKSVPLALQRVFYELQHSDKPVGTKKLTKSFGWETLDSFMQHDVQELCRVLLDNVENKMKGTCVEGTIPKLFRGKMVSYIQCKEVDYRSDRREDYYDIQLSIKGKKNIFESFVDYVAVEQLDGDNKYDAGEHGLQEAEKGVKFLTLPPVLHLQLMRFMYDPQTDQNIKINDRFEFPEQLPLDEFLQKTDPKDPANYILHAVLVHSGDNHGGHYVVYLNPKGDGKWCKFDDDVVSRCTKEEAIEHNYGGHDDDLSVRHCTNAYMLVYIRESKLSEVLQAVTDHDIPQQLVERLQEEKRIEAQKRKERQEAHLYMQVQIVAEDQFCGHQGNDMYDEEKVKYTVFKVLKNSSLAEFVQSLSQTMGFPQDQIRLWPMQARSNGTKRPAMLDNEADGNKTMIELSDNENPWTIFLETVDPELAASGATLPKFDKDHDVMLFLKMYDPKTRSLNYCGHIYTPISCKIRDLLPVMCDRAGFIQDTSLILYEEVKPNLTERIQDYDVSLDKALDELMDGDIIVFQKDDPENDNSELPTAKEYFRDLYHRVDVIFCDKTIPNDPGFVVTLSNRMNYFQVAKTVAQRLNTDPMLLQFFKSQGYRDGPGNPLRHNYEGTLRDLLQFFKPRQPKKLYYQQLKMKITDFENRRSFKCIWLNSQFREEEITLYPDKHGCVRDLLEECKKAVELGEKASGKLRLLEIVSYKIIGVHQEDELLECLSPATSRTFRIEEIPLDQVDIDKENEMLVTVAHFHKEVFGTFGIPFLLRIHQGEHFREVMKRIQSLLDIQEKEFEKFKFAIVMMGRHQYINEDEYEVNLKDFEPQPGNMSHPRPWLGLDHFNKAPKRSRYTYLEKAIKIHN
Method in brief: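 Kinetic 20-min fluorescence read (485/535 nm) of ubiquitin-rhodamine 110 (190 nM final) cleavage by 0.05 nM USP7 gave slopes. Compounds, 10 concentrations in 3-fold steps, had 15 min RT preincubation with enzyme first. Inhibition relative to max (enzyme+substrate) and min (substrate only) signals, fitted to IC50.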

[3] = plasma stability (Plasma Assay Protocol); assay type: in vitro ADME; details: 37° C., t1/2 extrapolated if >50% remaining at 60 min, ∞ if near 100% remaining
Experimental: ND refers to not disclosed.
• 1. Preheated 0.05 M sodium phosphate and 0.07 M NaCl buffer, pH 7.4. Dissolved 14.505 g/L Na2HPO4·12H2O, 1.483 g/L NaH2PO4·2H2O and 4.095 g/L NaCl in deionized water. The basic solution was then titrated with the phosphoric acid to pH 7.40. Stored in fridge up to 7 days. Checked pH on the day of experiment and adjust if outside specification of 7.4+/−0.1. • 2. Plasma preparation: • Thawed frozen plasma by placing at 37° C. quickly. Centrifuged plasma at 3,000 rpm for 8 minutes to remove clots, pipetted and pooled the supernatant as the plasma to be used in the experiment. Checked and recorded the pH of the plasma. Only used plasma within the range of pH 7.4 to pH 8. If higher than pH 8, discarded the plasma. By using a 5% CO2 incubator and PBS buffer, a pH of 7.4 was reached after the 4 hour equilibrium dialysis time. Put the plasma on ice until used. • 3. Tested compounds and reference compounds spiking solution: • 0.5 mM test compounds spiking solution A: Added 10 μL of 10 mM test compounds stock solution to 190 μL DMSO. • 0.02 mM spiking solution B: Added 40 μL of spiking solution A to 960 μL of […] Sodium phosphate buffer with 0.5% BSA.
Pre-warmed the plasma and spiking solution B at 37° C. for 5 min. Added 10 μL of pre-warmed spiking solution B into the wells designated for all the time points (5, 15, 30, 45, 60 min).
For 0-min, added 400 μL of acetonitrile (ACN) containing the internal standard (IS) to the wells of 0-min plate and then added 90 μL of plasma. Added 90 μL of pre-warmed plasma into the wells designated for the time points (0, 5, 15, 30, 45, 60 min), and started timing. At 5, 15, 30, 45, 60 min, added 400 μL of ACN containing IS to the wells of corresponding plates, respectively, to stop the reaction. After quenching, shook the plates at the vibrator (IKA, MTS 2/4) for 10 min (600 rpm/min) and then centrifuged at 5594 g for 15 min (Thermo Multifuge×3R). Transferred 50 μL of the supernatant from each well into a 96-well sample plate containing 50 μL of ultra pure water (Millipore ZMQS50F01) for LC/MS analysis.

| half-life at 1 µM [1] [min] | IC50 ([2]; read-out: IC50) [µM] | half-life at 2 µM [3] [h] | IC50 ([2]; 1 h, read-out: IC50, μM (1 h)) [µM] | IC50 ([2]; 6 h, read-out: IC50, μM (6 h)) [µM] | IC50 ([2]; 16 h, read-out: IC50, μM (16 h)) [µM] | Plasma t1/2, min [3] | Structure (SMILES) |
| --- | --- | --- | --- | --- | --- | --- | --- |
| 18 | 0.1 to 1 | 5.33 |  |  |  |  | CN1CCN(CCC(=O)Nc2ccc3c(=O)n(CC4(O)CCN(C(=O)[C@@H](CCCNC(=O)c5ccc6c(Cl)cc(-c7ccc(F)cc7)nc6c5)Cc5ccccc5)CC4)cnc3c2)CC1 [Compound 5, (S)—N-(4-benzyl-5-(4-hydroxy-4-((7-(3-(4-methylpiperazin-1-yl)propanamido)-4-oxoquinazolin-3(4H)-yl)methyl)piperidin-1-yl)-5-oxopentyl)-4-chloro-2-(4-fluorophenyl)quinoline-7-carboxamide] |
| 25.8 | 0.02 to 0.1 | 3.77 |  |  |  |  | CN1CCN(CCC(=O)Nc2ccc3c(=O)n(CC4(O)CCN(C(=O)[C@@H](CCCNC(=O)c5ccc6c(Cl)cc(-c7cnn(CC(F)(F)F)c7)nc6c5)Cc5ccccc5)CC4)cnc3c2)CC1 [Compound 20] |
| 18.3 | 0.02 to 0.1 | 2.25 |  |  |  |  | CN1CCN(CCC(=O)Nc2ccc3c(=O)n(CC4(O)CCN(C(=O)C(CCCNC(=O)c5ccc6c(Cl)cc(C7CC7)nc6c5)Cc5ccccc5)CC4)cnc3c2)CC1 (centres unmarked) [Compound 22] |
| 49.3 | 0.02 to 0.1 | 0.175 |  |  |  |  | C=CS(=O)(=O)Nc1ccccc1-c1ccc(C(=O)N2CCC(O)(Cn3cnc4cc(NC(=O)CCN5CCN(C)CC5)ccc4c3=O)CC2)cc1 [Compound 23, N-(3-((4-hydroxy-1-(2′-(vinylsulfonamido)-[1,1′-biphenyl]-4-carbonyl)piperidin-4-yl)methyl)-4-oxo-3,4-dihydroquinazolin-7-yl)-3-(4-methylpiperazin-1-yl)propanamide] |
| 15.7 | 0.02 to 0.1 | 112 |  |  |  |  | CN1CCN(CCOc2ccc3c(=O)n(CC4(O)CCN(C(=O)C(CCCNC(=O)c5ccc6c(Cl)ccnc6c5)Cc5ccccc5)CC4)cnc3c2)CC1 (centres unmarked) [Compound 30, N-(4-benzyl-5-(4-hydroxy-4-((7-(2-(4-methylpiperazin-1-yl)ethoxy)-4-oxoquinazolin-3(4H)-yl)methyl)piperidin-1-yl)-5-oxopentyl)-4-chloroquinoline-7-carboxamide] |
| 8.3 | 0.02 to 0.1 | 3.09 |  |  |  |  | CN(C)CCC(=O)Nc1ccc2c(=O)n(CC3(O)CCN(C(=O)C(CCCNC(=O)N4CCc5c(Cl)ccnc5C4)Cc4ccccc4)CC3)cnc2c1 (centres unmarked) [Compound 43] |
| 28.4 | 0.02 to 0.1 | 3.22 |  |  |  |  | O=C(CCN1CCNCC1)Nc1ccc2c(=O)n(CC3(O)CCN(C(=O)C(CCCNC(=O)c4ccc5c(Cl)ccnc5c4)Cc4ccccc4)CC3)cnc2c1 (centres unmarked) [Compound 61, N-(4-benzyl-5-(4-hydroxy-4-((4-oxo-7-(3-(piperazin-1-yl)propanamido)quinazolin-3(4H)-yl)methyl)piperidin-1-yl)-5-oxopentyl)-4-chloroquinoline-7-carboxamide] |
| 12.3 | 0.02 to 0.1 | 3.23 |  |  |  |  | CN(C)CCC(=O)Nc1ccc2c(=O)n(CC3(O)CCN(C(=O)C(CCCNC(=O)c4ccc5c(Cl)ccnc5c4)Cc4ccccc4)CC3)cnc2c1 (centres unmarked) [Compound 62] |
| 46.8 | 0.02 to 0.1 | 3.19 |  |  |  |  | CN(C)CCC(=O)Nc1ccc2c(=O)n(CC3(O)CCN(C(=O)C4CCN(CCNC(=O)c5ccc6c(Cl)ccnc6c5)C[C@H]4c4ccccc4)CC3)cnc2c1 (some centres unmarked) [Compound 73] |
| 69.4 | < 0.02 | 1.12 |  |  |  |  | CN(C)CCC(=O)Nc1ccc2c(=O)n(CC3(O)CCN(C(=O)[C@@H]4CCN(CCNC(=O)c5ccc6c(Cl)ccnc6c5)C[C@H]4c4ccccc4)CC3)cnc2c1 [Compound 75] |
| 1.73 | 0.02 to 0.1 | 2.68 |  |  |  |  | CN(C)CCC(=O)Nc1ccc2c(=O)n(CC3(O)CCN(C(=O)C(CCc4ncc(-c5ccc6c(Cl)ccnc6c5)o4)Cc4ccccc4)CC3)cnc2c1 (centres unmarked) [Compound 77] |
| 14.6 | < 0.02 | 1.29 |  |  |  |  | CN(C)CCC(=O)Nc1ccc2c(=O)n(CC3(O)CCN(C(=O)C(CCCC(=O)Nc4ccc5c(Cl)ccnc5c4)Cc4ccccc4)CC3)cnc2c1 (centres unmarked) [Compound 78] |
| 10.5 | 0.02 to 0.1 | 3.91 |  |  |  |  | CCc1cc(Cl)c2ccc(C(=O)NCCCC(Cc3ccccc3)C(=O)N3CCC(O)(Cn4cnc5cc(NC(=O)CCN(C)C)ccc5c4=O)CC3)cc2n1 (centres unmarked) [Compound 79] |
| 23.2 | < 0.02 | 1.01 |  |  |  |  | CN(C)CCC(=O)Nc1ccc2c(=O)n(CC3(O)CCN(C(=O)C(CCCNC(=O)c4ccc5c(F)ccnc5c4)Cc4ccccc4)CC3)cnc2c1 (centres unmarked) [Compound 87] |
| 2.97 | 0.02 to 0.1 | 5.59 |  |  |  |  | CN(C)CCC(=O)Nc1ccc2c(=O)n(CC3(O)CCN(C(=O)C(CCCNC(=O)c4ccc5c(Cl)c6c(nc5c4)C4CCC6C4)Cc4ccccc4)CC3)cnc2c1 (centres unmarked) [Compound 91] |
| 14.7 | < 0.02 | 0.172 |  |  |  |  | C=CS(=O)(=O)Nc1ccccc1N1CCC(C(=O)N2CCC(O)(Cn3cnc4cc(NC(=O)CCN5CCN(C)CC5)ccc4c3=O)CC2)[C@H](c2ccccc2)C1 (some centres unmarked) [Compound 93] |
| 30.8 | 0.1 to 1 | 0.0218 |  |  |  |  | CN1CCN(CCC(=O)Nc2ccc3c(=O)n(CC4(O)CCN(C(=O)C5CCN(c6cccc7c6CN(C#N)C7)C[C@H]5c5ccccc5)CC4)cnc3c2)CC1 (some centres unmarked) [Compound 94] |
| 26.9 | 0.1 to 1 | 0.0708 |  |  |  |  | C=CC(=O)Nc1ccccc1N1CCC(C(=O)N2CCC(O)(Cn3cnc4cc(NC(=O)CCN5CCN(C)CC5)ccc4c3=O)CC2)C(c2ccccc2)C1 (centres unmarked) [Compound 102] |
| 39 |  | 0.113 | 0.1 to 1 | < 0.02 | < 0.02 |  | C=CC(=O)Nc1ccncc1N1CCC(C(=O)N2CCC(O)(Cn3cnc4cc(NC(=O)CCN5CCN(C)CC5)ccc4c3=O)CC2)C(c2ccccc2)C1 (centres unmarked) [Compound 106] |
| 14 | < 0.02 |  |  |  |  | ∞* | CC(C)c1cnc2cc(C(=O)NCCN3CCC(C(=O)N4CCC(O)(Cn5cnc6cc(OCCN7CCNCC7)ccc6c5=O)CC4)C(c4ccccc4)C3)ccc2c1Cl (centres unmarked) [Compound 108] |
| 22.4 | < 0.02 | 1.7 |  |  |  |  | O=C(NCCN1CCC(C(=O)N2CCC(O)(Cn3cnc4cc(OCCN5CCNCC5)ccc4c3=O)CC2)C(c2ccccc2)C1)c1ccc2c(F)ccnc2c1 (centres unmarked) [Compound 109] |
| 45.3 | 0.1 to 1 | 5.08 |  |  |  |  | CN(C)CCOc1cc(F)c2c(=O)n(CC3(O)CCN(C(=O)C4CCN(CCNC(=O)c5ccc6c(Cl)ccnc6c5)CC4c4ccccc4)CC3)cnc2c1 (centres unmarked) [Compound 112] |
| 4.13 | < 0.02 | 11.7 |  |  |  |  | CN(C)CCC(=O)Nc1ccc2c(=O)n(CC3(O)CCN(C(=O)[C@H](CCCNC(=O)c4ccc5c(Cl)c6c(nc5c4)CCC6)Cc4ccccc4)CC3)cnc2c1 [Compound 114] |
| 27.1 | < 0.02 |  |  |  |  | ∞* | CN(C)CCCOc1ccc2c(=O)n(CC3(O)CCN(C(=O)C(CCCNC(=O)c4ccc5c(Cl)cc(C6CC6)nc5c4)Cc4ccccc4)CC3)cnc2c1 (centres unmarked) [Compound 116] |
| 20.3 | 0.02 to 0.1 |  |  |  |  | ∞* | CN(C)CCOc1ccc2c(=O)n(CC3(O)CCN(C(=O)[C@H](CCCNC(=O)c4ccc5c(Cl)cc(C6CC6)nc5c4)Cc4ccccc4)CC3)cnc2c1 [Compound 117] |
| 3090 | 0.02 to 0.1 | 3.77 |  |  |  |  | CN1CCN(c2ccc3c(=O)n(CC4(O)CCN(C(=O)[C@H](CCCNC(=O)c5ccc6c(Cl)cc(C7CC7)nc6c5)Cc5ccccc5)CC4)cnc3c2)CC1 [Compound 122] |
